Experiments:
[1] = molecular target: T1, human PP2A A-C heterodimer (Homo sapiens, UniProt P67775); format: biochemical
T1 construct: purified PP2A A-C dimer purified from human red blood cells; purchased Upstate 14-111 (lot #28002); host or cells: human red blood cells (native purification)
Protocol: In initial assays a chemical substrate of phosphatase enzymatic action, para-nitrophennylphosphate (pNPP) was used, which following hydrolysis of the phosphate moiety generates para-nitrophenol, an intensely yellow chromogen which is soluble under alkaline conditions. […] Absorbance of each sample was measured in duplicate at 405 nm with 590 nm as a reference. PP2A activity was calculated using the following equation: activity=(sample vol in liters)×A405/1.78×104M^−1 cm^−1 (extinction coefficient)×0.25 cm×15 minutes×0.05 U enzyme Data is presented as mean relative phosphatase activity ±SEM from at least three independent experiments.
Para-nitrophennylphosphate (PNPP) is a chemical substrate of phosphatase enzymes, which following hydrolysis of the phosphate moiety generates para-nitrophenol, an intensely yellow chromogen, soluble under alkaline conditions. In assays measuring relative phosphatase activity, 0.05 U of purified PP2A was mixed with 5 μl of 40 mM NiCl2 and 5 μl of BSA solution (5 mg/ml) in a microcentrifuge tube. Various treatments were added as indicated, and the volume adjusted to 80 μl with pNPP assay buffer. Samples were pre-incubated at 37° C. for 15 min. pNPP substrate was freshly prepared before each assay by dissolving 1.5 mg/ml pNPP in 50 mM Tris-HCl, pH 7.0. To start the phosphatase reaction, 120 μl of pNPP substrate was added, and samples incubated for a further 15 min at 37° C. Absorbance of each sample was measured in duplicate at 405 nm with 590 nm as a reference. PP2A activity was calculated using the following equation: activity=(Sample volume in liters)×A405/1.78×10^4M^−1cm^−1 (Extinction coefficient)×0.25 cm×15 min×0.05 U enzyme.

p70S6K = format: cell-based, human; conditions: PC3 cells; LY294002 50 μM 1 hour, sodium selenate 500 μM 1 hour, okadaic acid 500 nM
Protocol: 5×10^5 PC3 prostate carcinoma cells were plated per well of a 6-well plate, allowed to attach for 8 hours, then serum starved overnight. […] Equal amounts of whole cell lysates (75 μg) were resolved by SDS-PAGE, and the level of p70S6K phosphorylation determined by immunoblot analysis with an antibody that specifically recognizes the p70S6K protein when phosphorylated on Thr389. Comparison is made with the protein loading control β tubulin.

human TAU441 = conditions: TMHT mice
Protocol: This was done every Monday, Wednesday and Friday, and the water was weighed on exchange to measure consumption.
After blood sampling transgenic mice were intracardially perfused with 0.9% sodium chloride. Brains were rapidly removed, and the right half was immersion fixed for 24 hours in freshly prepared 4% Paraformaldehyde and embedded in paraffin for histological investigations. The left hemisphere was frozen on dry ice and stored at −80° C. for possible later biochemical analysis.
In initially nine (9) brain hemispheres (≧3 per Tg animal group) histological evaluations were performed to qualitative and quantitative evaluate TAU pathology.
Fifteen (15) coronal consecutive sections (Leica SM 2000R) were cut (5 μm thick) at each of 5 different brain layers between Bregma −1.82 and −1.34 mm, which were chosen according to the morphology atlas “The Mouse Brain” from Paxinos and Franklin (2 ^d edition), for Gallyas staining and for determination TAU pathology with specific antibodies (AT180 and HT7). Tissues of all transgenic animals investigated were handled in exactly the same way to avoid bias due to variation of this procedure. Remaining brain hemispheres or tissue not used are saved and stored until the sponsor has decided to how to proceed or until end of the study.
TAU depositions were determined using the monoclonal TAU-antibodies AT180 and HT7 (Pierce Endogen®).
Five (5) μm thick coronal paraffin sections from each of the five different layers were stained with the above described monoclonal mouse anti-human TAU-antibodies (AT180—1:100; HT7—1:1000) and visualized using a secondary anti-mouse Cy3 (1:500, Jackson Laboratories®). The detailed staining protocols are set out below:
AT180 incubation protocol for the determination of human PHF-TAU depositions • 1.) Deparaffinize and hydrate tissue sections through Tissue Clear (Sakura®) and graded alcohol (Merck®) series. • 2.) Wash for 2 minutes in Aqua bidest (Fresenius-Kabi®) • 3.) Place tissue sections for antigen unmasking in 10% citrate buffer (Labvision®) for 15 minutes at 95° C. in a steamer and to cool down for 15 minutes at room temperature. • 4.) Wash sections for 2×5 minutes in PBS. • 5.) Block endogenous peroxidase with 1% hydrogen peroxide (Linaris®) in methanol (Merck®) for 10 minutes at room temperature. • 6.) Wash sections for 2×5 minutes in PBS. • 7.) Block unspecific bindings with MOM-Blocking Reagent (Vector®) for 60 minutes at room temperature in a damp chamber. • 8.) Wash sections for 2×5 minutes in PBS. • 9.) Block unspecific bindings with MOM-Diluent (Vector®) for 5 minutes at room temperature. • 10.) Incubate with AT180 (Pierce Endogen®; 1:100 in MOM-Diluent) for 60 minutes at room temperature in a damp chamber. • 11.) Wash sections for 3×5 minutes in PBS. • 12.) Block unspecific bindings with 10% Non-Immune Goat-Normal Serum (Dako®) for 10 minutes at room temperature in a damp chamber. • 13.) Wash sections for 2×5 minutes in PBS. • 14.) Incubate with Cy 3 Goat Anti-Mouse (Jackson®; 1:500 in MOM-Diluent) for 60 minutes at room temperature in a damp chamber. • 15.) Wash sections for 5 minutes in PBS. • 16.) Wash sections for 5 minutes in Aqua bidest. • 17.) Cover sections with Moviol and coverslips.

T1 sequence (P67775 whole entry): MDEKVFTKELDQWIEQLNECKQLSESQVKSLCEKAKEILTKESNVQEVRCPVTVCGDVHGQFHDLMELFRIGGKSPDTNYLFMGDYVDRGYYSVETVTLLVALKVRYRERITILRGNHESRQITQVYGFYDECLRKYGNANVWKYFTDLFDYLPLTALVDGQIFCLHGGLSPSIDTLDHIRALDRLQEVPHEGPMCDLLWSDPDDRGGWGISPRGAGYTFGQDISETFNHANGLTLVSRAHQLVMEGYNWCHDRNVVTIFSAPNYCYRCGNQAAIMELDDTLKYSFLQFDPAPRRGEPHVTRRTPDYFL
T1 sequence (P30153 2-589 partner limits assumed): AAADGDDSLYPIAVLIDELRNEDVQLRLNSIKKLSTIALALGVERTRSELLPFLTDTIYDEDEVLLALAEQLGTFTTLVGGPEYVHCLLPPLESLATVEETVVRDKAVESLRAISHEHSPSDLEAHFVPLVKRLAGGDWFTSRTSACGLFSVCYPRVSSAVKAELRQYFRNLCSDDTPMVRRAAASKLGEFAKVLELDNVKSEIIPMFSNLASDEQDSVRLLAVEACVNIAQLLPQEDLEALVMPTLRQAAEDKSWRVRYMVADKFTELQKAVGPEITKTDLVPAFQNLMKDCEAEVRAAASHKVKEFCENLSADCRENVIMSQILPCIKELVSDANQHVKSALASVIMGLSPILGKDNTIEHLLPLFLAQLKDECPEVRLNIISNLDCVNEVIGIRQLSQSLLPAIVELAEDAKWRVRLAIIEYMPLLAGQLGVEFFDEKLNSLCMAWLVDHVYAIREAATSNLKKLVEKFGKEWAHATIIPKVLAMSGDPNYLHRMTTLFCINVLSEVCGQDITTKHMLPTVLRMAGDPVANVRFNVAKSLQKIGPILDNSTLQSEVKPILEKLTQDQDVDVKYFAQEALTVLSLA

Structure (SMILES): O=[Se](=O)(O)O [sodium selenate]
- PP2A phosphatase activity, pNPP as substrate ([1]; 5 mM of each selenium compound): clear boost in phosphatase activity
- PP2A phosphatase activity (pNPP) ([1]; 0.05 U PP2A dimer, 30 min at 37° C., sodium selenate 5 mM, okadaic acid 500 nM): nearly tripled
- p70S6K phosphorylation on Thr389 (p70S6K): unaffected
- percentage of relative TAU area in the Amygdala (AT180), versus untreated baseline (human TAU441): not versus untreated baseline group
- percentage of relative HT7-TAU area in the hippocampus (human TAU441; 1.2 mg, versus vehicle (ANOVA p<0.05, T-Test p=0.04) and untreated baseline (ANOVA p<0.05)): significantly reduced
- percentage of relative AT180-TAU area in the hippocampus (human TAU441; 1.2 mg, versus vehicle (T-Test p=0.04)): reduced
- percentage of relative TAU area in the Amygdala (AT180), versus vehicle (human TAU441; ANOVA p<0.05, T-Test p=0.0045): significantly reduced percentage of relative HT7-TAU area
- TAU load and TAU positive cells in the amygdala and neuronal layer of the hippocampal CA1 region (human TAU441; AT180 and HT7 immunoreactivity): visibly reduced TAU load as well as TAU positive cells
- percentage of relative HT7-TAU area in the Amygdala (human TAU441; versus untreated baseline (ANOVA p<0.01) and vehicle (ANOVA p<0.05, T-test p=0.0018)): significantly reduced percentage of relative HT7-TAU area
